Laboratory results published in ChEMBL document CHEMBL4052776, “Discovery of 3-morpholino-imidazole[1,5-a]pyrazine BTK inhibitors for rheumatoid arthritis” (Bioorg Med Chem Lett, 2017).
Each block holds one molecule with its values, some of them ahead of it.

Key:
[1] = biological target: Voltage-gated inwardly rectifying potassium channel KCNH2 (Homo sapiens, UniProt Q12809); experiment: Inhibition of human ERG by [35S]-MK499 displacement or iKr channel assay
[2] = organism: Homo sapiens; experiment: Selectivity ratio of IC50 for FGR (unknown origin) to IC50 for BTK (unknown origin)
[3] = organism: Homo sapiens; experiment: Selectivity ratio of IC50 for FYN (unknown origin) to IC50 for BTK (unknown origin)
[4] = biological target: Tyrosine-protein kinase CSK (Homo sapiens, UniProt P41240); experiment: Inhibition of CSK (unknown origin)
[5] = biological target: Tyrosine-protein kinase Fyn (Homo sapiens, UniProt P06241); experiment: Inhibition of FYN (unknown origin)
[6] = biological target: Tyrosine-protein kinase Blk (Homo sapiens, UniProt P51451); experiment: Inhibition of BLK (unknown origin)
[7] = organism: Homo sapiens; experiment: Selectivity ratio of IC50 for ERBB4 (unknown origin) to IC50 for BTK (unknown origin)
[8] = organism: Homo sapiens; experiment: Selectivity ratio of IC50 for SRMS (unknown origin) to IC50 for BTK (unknown origin)
[9] = biological target: Tyrosine-protein kinase Yes (Homo sapiens, UniProt P07947); experiment: Inhibition of YES1 (unknown origin)
Sequence of Tyrosine-protein kinase Yes (P07947 whole entry): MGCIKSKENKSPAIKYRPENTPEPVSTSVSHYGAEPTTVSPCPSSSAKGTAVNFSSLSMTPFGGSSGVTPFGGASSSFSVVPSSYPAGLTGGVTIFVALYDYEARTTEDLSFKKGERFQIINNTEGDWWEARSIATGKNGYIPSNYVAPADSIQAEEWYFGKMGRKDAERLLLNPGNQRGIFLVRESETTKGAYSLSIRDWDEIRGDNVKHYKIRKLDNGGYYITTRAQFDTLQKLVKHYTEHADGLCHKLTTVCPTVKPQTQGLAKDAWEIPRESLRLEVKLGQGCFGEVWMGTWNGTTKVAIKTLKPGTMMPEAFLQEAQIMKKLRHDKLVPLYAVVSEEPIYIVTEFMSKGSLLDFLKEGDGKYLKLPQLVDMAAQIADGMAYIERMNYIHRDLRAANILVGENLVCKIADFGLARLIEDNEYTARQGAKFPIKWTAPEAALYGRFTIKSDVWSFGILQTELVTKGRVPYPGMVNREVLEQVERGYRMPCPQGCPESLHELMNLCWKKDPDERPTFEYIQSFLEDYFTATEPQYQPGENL

[10] = organism: Homo sapiens; experiment: Selectivity ratio of IC50 for YES1 (unknown origin) to IC50 for BTK (unknown origin)
[11] = biological target: Receptor tyrosine-protein kinase erbB-4 (Homo sapiens, UniProt Q15303); experiment: Inhibition of ERBB4 (unknown origin)
[12] = organism: Homo sapiens; experiment: Selectivity ratio of IC50 for LYNB (unknown origin) to IC50 for BTK (unknown origin)
[13] = biological target: T1, Tyrosine-protein kinase Tec (Homo sapiens, UniProt P42680); experiment: Inhibition of TEC (unknown origin)
T1 sequence (P42680 whole entry): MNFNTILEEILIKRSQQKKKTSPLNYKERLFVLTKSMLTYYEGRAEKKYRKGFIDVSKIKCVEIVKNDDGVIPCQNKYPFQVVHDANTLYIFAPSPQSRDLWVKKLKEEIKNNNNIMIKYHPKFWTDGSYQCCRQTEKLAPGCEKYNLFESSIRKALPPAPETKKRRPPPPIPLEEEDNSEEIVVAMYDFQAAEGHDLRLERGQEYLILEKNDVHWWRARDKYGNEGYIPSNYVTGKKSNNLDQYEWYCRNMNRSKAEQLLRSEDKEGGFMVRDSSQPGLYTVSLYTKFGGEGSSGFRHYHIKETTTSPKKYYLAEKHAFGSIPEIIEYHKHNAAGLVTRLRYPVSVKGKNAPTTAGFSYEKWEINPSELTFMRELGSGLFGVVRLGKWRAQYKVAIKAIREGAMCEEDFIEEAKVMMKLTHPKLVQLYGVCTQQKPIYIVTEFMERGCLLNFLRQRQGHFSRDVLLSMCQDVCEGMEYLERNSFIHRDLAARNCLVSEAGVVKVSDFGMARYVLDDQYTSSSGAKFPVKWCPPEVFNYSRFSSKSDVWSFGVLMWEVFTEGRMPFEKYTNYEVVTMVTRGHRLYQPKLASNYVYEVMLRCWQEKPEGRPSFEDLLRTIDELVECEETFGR

[14] = biological target: Tyrosine-protein kinase FRK (Homo sapiens, UniProt P42685); experiment: Inhibition of FRK (unknown origin)
[15] = organism: Homo sapiens; experiment: Selectivity ratio of IC50 for TXK (unknown origin) to IC50 for BTK (unknown origin)
[16] = organism: Homo sapiens; experiment: Selectivity ratio of IC50 for FRK (unknown origin) to IC50 for BTK (unknown origin)
[17] = biological target: Tyrosine-protein kinase Lck (Homo sapiens, UniProt P06239); experiment: Inhibition of LCK (unknown origin)
[18] = organism: Homo sapiens; experiment: Selectivity ratio of IC50 for PTK6 (unknown origin) to IC50 for BTK (unknown origin)
[19] = organism: Homo sapiens; experiment: Selectivity ratio of IC50 for BMX (unknown origin) to IC50 for BTK (unknown origin)
[20] = organism: Homo sapiens; experiment: Selectivity ratio of IC50 for TEC (unknown origin) to IC50 for BTK (unknown origin)
[21] = biological target: T2, Tyrosine-protein kinase TXK (Homo sapiens, UniProt P42681); experiment: Inhibition of TXK (unknown origin)
T2 sequence (P42681 whole entry): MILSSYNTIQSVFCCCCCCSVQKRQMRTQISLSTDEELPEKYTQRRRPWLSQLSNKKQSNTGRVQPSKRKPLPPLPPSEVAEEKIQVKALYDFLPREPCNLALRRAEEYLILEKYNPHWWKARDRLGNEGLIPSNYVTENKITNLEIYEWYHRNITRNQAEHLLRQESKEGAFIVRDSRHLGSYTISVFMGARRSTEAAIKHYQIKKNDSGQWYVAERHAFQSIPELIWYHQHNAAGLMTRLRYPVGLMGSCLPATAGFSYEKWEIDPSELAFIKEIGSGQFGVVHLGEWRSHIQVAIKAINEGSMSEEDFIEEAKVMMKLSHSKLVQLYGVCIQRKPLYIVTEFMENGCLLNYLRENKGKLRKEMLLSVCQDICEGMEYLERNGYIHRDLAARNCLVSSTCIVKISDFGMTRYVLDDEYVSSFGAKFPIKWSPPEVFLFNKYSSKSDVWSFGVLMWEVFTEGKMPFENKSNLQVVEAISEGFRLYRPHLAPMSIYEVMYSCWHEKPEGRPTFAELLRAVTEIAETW

[22] = organism: Homo sapiens; experiment: Selectivity ratio of IC50 for LCK (unknown origin) to IC50 for BTK (unknown origin)
[23] = biological target: Tyrosine-protein kinase Srms (Homo sapiens, UniProt Q9H3Y6); experiment: Inhibition of SRMS (unknown origin)
Sequence of Tyrosine-protein kinase Srms (Q9H3Y6 whole entry): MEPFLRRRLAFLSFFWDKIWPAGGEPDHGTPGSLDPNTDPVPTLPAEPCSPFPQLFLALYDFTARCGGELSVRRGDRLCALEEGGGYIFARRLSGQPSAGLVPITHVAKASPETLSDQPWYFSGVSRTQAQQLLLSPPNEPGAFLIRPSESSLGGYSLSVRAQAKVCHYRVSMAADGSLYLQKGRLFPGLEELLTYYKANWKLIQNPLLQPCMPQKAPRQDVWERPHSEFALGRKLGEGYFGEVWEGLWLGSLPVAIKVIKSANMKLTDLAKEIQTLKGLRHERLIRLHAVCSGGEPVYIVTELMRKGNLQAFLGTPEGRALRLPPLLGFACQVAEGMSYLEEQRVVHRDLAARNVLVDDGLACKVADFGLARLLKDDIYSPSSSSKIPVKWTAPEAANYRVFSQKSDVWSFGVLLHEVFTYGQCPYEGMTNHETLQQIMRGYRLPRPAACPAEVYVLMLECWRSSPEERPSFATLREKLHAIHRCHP

[24] = biological target: Proto-oncogene tyrosine-protein kinase Src (Homo sapiens, UniProt P12931); experiment: Inhibition of SRC (unknown origin)
Sequence of Proto-oncogene tyrosine-protein kinase Src (P12931 2-536 limits assumed): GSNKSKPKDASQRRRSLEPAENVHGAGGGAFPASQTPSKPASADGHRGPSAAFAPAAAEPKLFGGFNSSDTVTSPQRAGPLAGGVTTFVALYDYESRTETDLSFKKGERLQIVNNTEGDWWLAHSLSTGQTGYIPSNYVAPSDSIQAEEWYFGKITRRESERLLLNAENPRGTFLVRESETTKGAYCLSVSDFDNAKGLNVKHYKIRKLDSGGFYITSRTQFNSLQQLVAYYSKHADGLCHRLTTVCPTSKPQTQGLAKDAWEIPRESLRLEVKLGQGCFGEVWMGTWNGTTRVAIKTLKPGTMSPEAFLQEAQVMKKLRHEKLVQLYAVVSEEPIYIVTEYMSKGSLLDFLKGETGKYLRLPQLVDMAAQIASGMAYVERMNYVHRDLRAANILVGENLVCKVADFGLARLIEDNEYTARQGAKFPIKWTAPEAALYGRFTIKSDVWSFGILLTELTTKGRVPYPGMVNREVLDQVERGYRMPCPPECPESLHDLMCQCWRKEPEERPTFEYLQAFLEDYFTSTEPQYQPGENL

[25] = organism: Homo sapiens; experiment: Selectivity ratio of IC50 for BLK (unknown origin) to IC50 for BTK (unknown origin)
[26] = biological target: Tyrosine-protein kinase Lyn (Homo sapiens, UniProt P07948); experiment: Inhibition of LYNB (unknown origin)
Sequence of Tyrosine-protein kinase Lyn (P07948 whole entry): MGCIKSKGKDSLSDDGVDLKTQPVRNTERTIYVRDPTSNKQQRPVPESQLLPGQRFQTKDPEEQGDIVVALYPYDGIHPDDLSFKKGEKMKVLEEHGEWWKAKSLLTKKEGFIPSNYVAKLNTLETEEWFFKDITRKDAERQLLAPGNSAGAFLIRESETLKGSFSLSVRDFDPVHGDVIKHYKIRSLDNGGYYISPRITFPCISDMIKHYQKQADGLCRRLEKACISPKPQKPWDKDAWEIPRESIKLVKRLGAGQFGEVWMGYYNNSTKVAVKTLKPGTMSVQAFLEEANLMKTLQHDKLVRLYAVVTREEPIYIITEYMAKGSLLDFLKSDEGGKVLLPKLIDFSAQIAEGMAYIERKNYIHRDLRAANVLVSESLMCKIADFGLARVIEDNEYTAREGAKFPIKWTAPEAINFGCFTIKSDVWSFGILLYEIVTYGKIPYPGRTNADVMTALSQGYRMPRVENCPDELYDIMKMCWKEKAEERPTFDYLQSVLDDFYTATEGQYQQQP

[27] = biological target: T3, Tyrosine-protein kinase BTK (Homo sapiens, UniProt Q06187); experiment: Inhibition of recombinant full-length His6-tagged BTK (unknown origin) expressed in baculovirus infected Sf9 cells using biotinylated A5 peptide as substrate preincubated for 60 mins followed by substrate addition measured after 120 mins by LANCE TR-FRET assay
T3 sequence (Q06187 whole entry): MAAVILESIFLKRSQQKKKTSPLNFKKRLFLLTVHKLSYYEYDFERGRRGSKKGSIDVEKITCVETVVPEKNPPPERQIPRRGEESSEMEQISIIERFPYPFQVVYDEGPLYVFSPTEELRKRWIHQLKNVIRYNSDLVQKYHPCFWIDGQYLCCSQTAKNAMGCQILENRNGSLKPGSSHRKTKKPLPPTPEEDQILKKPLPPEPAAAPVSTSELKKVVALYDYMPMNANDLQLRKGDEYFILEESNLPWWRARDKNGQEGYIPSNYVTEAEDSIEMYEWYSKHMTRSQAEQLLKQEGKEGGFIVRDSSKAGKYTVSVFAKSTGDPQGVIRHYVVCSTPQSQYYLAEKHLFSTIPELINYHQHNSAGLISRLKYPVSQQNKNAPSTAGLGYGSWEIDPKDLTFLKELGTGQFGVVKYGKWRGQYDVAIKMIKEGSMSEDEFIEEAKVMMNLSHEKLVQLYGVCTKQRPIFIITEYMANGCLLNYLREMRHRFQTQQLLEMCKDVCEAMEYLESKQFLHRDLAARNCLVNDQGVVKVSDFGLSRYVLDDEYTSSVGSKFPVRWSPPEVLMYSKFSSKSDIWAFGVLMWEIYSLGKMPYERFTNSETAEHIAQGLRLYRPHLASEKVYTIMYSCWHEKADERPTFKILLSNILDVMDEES

[28] = biological target: T4, Cytoplasmic tyrosine-protein kinase BMX (Homo sapiens, UniProt P51813); experiment: Inhibition of BMX (unknown origin)
T4 sequence (P51813 whole entry): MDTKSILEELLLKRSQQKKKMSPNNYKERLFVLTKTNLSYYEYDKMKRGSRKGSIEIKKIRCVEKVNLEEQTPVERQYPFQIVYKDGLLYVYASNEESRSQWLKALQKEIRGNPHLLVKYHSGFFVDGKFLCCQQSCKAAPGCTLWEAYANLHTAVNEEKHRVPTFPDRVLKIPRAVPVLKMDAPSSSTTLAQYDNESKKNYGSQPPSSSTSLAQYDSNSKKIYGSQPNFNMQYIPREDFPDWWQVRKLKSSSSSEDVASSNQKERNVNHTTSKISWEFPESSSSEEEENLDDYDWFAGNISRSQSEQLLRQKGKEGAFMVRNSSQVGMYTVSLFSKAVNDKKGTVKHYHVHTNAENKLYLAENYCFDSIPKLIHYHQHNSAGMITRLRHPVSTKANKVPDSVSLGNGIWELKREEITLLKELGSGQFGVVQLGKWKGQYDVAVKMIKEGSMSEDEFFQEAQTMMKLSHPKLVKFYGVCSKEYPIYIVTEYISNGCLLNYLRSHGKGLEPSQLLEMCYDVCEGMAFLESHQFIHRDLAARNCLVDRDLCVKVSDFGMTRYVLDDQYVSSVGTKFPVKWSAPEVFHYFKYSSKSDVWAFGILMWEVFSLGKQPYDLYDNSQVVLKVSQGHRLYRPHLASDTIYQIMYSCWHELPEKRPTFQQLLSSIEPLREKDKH

[29] = biological target: T3, Tyrosine-protein kinase BTK; experiment: Inhibition of BTK in human PBMC assessed as reduction in anti-IgM-induced MIP1beta
[30] = biological target: Protein-tyrosine kinase 6 (Homo sapiens, UniProt Q13882); experiment: Inhibition of PTK6 (unknown origin)
Sequence of Protein-tyrosine kinase 6 (Q13882 whole entry): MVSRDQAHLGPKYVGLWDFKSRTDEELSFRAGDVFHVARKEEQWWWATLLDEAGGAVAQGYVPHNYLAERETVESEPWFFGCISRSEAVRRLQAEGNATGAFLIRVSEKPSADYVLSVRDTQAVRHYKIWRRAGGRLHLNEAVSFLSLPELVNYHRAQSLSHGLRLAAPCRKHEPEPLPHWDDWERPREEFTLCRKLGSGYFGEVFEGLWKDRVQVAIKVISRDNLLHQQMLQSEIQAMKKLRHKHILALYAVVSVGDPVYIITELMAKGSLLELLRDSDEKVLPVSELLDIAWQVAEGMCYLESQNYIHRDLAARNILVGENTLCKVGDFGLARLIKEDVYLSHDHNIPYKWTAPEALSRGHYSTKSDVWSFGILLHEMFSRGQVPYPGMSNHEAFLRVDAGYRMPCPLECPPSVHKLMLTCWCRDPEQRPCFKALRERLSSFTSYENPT

[31] = biological target: Tyrosine-protein kinase Fgr (Homo sapiens, UniProt P09769); experiment: Inhibition of FGR (unknown origin)
Sequence of Tyrosine-protein kinase Fgr (P09769 whole entry): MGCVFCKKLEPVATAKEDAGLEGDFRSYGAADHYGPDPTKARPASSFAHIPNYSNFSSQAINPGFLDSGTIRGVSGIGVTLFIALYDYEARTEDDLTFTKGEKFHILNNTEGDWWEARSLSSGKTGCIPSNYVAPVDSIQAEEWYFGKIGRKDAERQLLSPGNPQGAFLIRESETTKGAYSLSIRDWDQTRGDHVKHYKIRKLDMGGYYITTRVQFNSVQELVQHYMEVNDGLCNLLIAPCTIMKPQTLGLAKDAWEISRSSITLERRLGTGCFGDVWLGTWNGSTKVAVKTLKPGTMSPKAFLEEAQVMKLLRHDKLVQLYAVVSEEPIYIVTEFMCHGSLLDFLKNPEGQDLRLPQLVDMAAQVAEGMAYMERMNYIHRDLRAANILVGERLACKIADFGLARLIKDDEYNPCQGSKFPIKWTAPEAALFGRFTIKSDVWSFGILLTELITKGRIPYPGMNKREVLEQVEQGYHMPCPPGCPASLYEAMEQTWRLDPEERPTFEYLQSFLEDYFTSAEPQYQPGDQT

[32] = organism: Homo sapiens; experiment: Selectivity ratio of IC50 for SRC (unknown origin) to IC50 for BTK (unknown origin)
[33] = organism: Homo sapiens; experiment: Selectivity ratio of IC50 for CSK (unknown origin) to IC50 for BTK (unknown origin)

Sequence of Voltage-gated inwardly rectifying potassium channel KCNH2 (Q12809 whole entry): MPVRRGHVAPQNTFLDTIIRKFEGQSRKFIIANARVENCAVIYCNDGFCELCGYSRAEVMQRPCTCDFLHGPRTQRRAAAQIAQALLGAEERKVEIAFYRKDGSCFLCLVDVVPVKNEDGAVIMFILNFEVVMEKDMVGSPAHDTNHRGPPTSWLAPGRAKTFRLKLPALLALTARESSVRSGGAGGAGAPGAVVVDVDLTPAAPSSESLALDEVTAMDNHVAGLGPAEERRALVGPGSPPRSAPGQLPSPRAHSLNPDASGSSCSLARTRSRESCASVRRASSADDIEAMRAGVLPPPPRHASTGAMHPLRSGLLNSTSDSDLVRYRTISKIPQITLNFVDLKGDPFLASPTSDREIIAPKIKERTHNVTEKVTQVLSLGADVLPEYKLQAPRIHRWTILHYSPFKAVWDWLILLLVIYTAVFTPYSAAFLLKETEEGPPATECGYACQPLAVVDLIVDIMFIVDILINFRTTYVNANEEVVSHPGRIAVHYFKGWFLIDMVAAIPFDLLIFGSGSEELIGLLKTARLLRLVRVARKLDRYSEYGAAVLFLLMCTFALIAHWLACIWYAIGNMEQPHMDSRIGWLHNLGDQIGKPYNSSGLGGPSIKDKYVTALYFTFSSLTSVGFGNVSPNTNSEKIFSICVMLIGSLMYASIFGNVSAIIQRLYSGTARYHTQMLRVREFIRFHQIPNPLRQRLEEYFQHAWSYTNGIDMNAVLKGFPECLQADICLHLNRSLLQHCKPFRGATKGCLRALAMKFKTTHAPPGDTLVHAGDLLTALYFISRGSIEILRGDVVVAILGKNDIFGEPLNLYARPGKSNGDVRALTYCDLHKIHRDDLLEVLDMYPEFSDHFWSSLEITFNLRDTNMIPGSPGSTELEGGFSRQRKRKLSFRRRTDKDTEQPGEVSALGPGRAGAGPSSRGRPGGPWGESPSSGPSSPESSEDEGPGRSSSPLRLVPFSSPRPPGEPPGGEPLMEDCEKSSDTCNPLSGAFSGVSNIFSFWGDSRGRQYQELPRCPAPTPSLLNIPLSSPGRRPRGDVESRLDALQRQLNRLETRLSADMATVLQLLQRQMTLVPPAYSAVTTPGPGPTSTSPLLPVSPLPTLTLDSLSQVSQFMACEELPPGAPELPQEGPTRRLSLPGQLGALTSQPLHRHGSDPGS

SMILES: COCCC(=O)N1CCO[C@@H](c2nc(-c3ccc(C(=O)Nc4cc(C(F)(F)F)ccn4)cc3)c3c(N)nccn23)C1
IC50 [1]: 5800 nM

SMILES: CC1(C(=O)N2CC(c3nc(-c4ccc(C(=O)Nc5cc(C(F)(F)F)ccn5)cc4)c4c(N)nccn34)C2)COC1
IC50 [1]: 400 nM

SMILES: CC1(C(=O)N2CCO[C@@H](c3nc(-c4ccc(C(=O)Nc5cc(C(F)(F)F)ccn5)cc4)c4c(N)nccn34)C2)COC1
IC50 [1]: 14400 nM

SMILES: CC(=O)N1CCC[C@@H](c2nc(-c3ccc(C(=O)Nc4cc(C(F)(F)F)ccn4)cc3F)c3c(N)nccn23)C1
IC50 [1]: 2400 nM

SMILES: COCCC(=O)N1CCSC(c2nc(-c3ccc(C(=O)Nc4cc(C(F)(F)F)ccn4)cc3)c3c(N)nccn23)C1 (stereo not drawn)
IC50 [1]: 1800 nM

Ratio IC50 [2]: 127 | Ratio IC50 [3]: 853 | IC50 [4]: 261 nM | IC50 [5]: 188 nM | IC50 [6]: 9 nM | Ratio IC50 [7]: 322 | Ratio IC50 [8]: 86 | IC50 [9]: 37 nM | Ratio IC50 [10]: 167 | IC50 [11]: 71 nM | Ratio IC50 [12]: 335 | IC50 [13]: 63 nM | IC50 [14]: 151 nM | Ratio IC50 [15]: 203 | Ratio IC50 [16]: 687 | IC50 [17]: 11 nM | Ratio IC50 [18]: 273 | Ratio IC50 [19]: 93 | Ratio IC50 [20]: 287 | IC50 [21]: 45 nM | Ratio IC50 [22]: 51 | IC50 [23]: 19 nM | IC50 [24]: 55 nM | Ratio IC50 [25]: 39 | IC50 [26]: 74 nM | IC50 [27]: 0.2 to 0.22 nM | IC50 [28]: 20 nM | IC50 [29]: 13 nM | IC50 [30]: 60 nM | IC50 [31]: 28 nM | Ratio IC50 [32]: 251 | Ratio IC50 [33]: 1180
SMILES: COCC(=O)N1CCC[C@@H](c2nc(-c3ccc(C(=O)Nc4cc(C(F)(F)F)ccn4)cc3F)c3c(N)nccn23)C1
IC50 [1]: 4500 nM
